Laboratory results from patent US11446281B2, “Anti-inflammatory composition comprising acylhydrazone derivative” (KOREA RESEARCH INSTITUTE OF BIOSCIENCE AND BIOTECHNOLOGY, priority 2018, dated 2022).

Assays:
[1] = system: ear skin tissue of dermatitis-induced mice; assay: Histopathological analysis (Hematoxylin and Eosin) of ear skin tissue; format: in vivo, mouse; settings: H&E staining, FIG. 5
Description: For pathological observation of the skin after completion of the application experiment, an ear skin tissue of each mouse was collected and stained with Hematoxylin and Eosin.

[2] = system: IL-4, IL-13 and IL-2 mRNA; assay: qPCR of inflammatory cytokine mRNA in back skin tissue of dermatitis-induced mice; format: in vivo, HR-1 (hairless) mouse; settings: FIG. 2A to 2C; for inflammatory cytokine expression compared with Cyclosporine A group: comparison with test group treated with Cyclosporine A; for expression level of the inflammatory cytokine (IL-4, IL-13, IL-2 mRNA) in skin tissue: vs positive control treated with only oxazolone, qPCR
Description: Inflammatory cytokines most associated with development of dermatitis such as atopic dermatitis are known as IL-4 and IL-13 which are secreted primarily from Th2 T cells. To further identify the anti-inflammatory effect of the acylhydrazone derivative compounds in mice in which dermatitis is induced by oxazolone. A mRNA level of IL-2 as secreted from Th2 T cells and mRNA levels of IL-4 and IL-13 as the cytokines most closely related to the development of dermatitis in the inflammatory tissue were quantified.
Specifically, a skin tissue was collected from the dermatitis-induced mice produced in Example 1 and crushed using a tissue disruptor. The crushed tissue powder was dissolved in a solution of Trizol reagent (Sigma company), and RNA was extracted therefrom using an RNeasy mini kit (Qiagen company). The extracted RNA was reverse transcribed into cDNA using an ImProm-II™ Reverse Transcription kit (Promega company). Then, using a CFX96™ Real-Time PCR Detection System (Bio-Rad company), levels of the cytokines present in the skin tissue was measured based on a qPCR (quantitative PCR) method.

[3] = system: phosphorylation of p65 (RelA), NF-κB signaling pathway; assay: Western blot of phosphorylated p65 in RAW macrophage cell line (NF-κB signaling pathway); format: cell-based, mice; settings: RAW cells, with NF-κB inducing factors (tumor necrosis factor-α, lipopolysaccharide, or the like), 12 to 24 hours; Western blotting; FIG. 9
Protocol: To further identify the mechanism of action involved in the anti-inflammatory effect by the acylhydrazone derivative compound, RAW cell lines as mice-derived macrophage immune cell lines were incubated. We observed the effect of the compound according to the present disclosure on NF-κB (nuclear factor kappa-light-chain-enhancer of activated B cells) signaling pathway involved in the production of inflammatory cytokines. The NF-κB signaling pathway is involved in inflammatory reactions. In particular, it is known that when phosphorylation of p65 (RelA) is induced, phosphorylated p65 moves to the nucleus of immune cells and induces an expression of cytokines that cause inflammatory reactions.
Specifically, after incubating a predetermined amount of RAW cells (5×10^5 to 10×10^5 cells/well for a 6-well plate) in DMEM medium (containing 10% fetal calf serum), WCI-1004, WCI-1015, and WCI-1031 compounds together with factors (tumor necrosis factor-α, lipopolysaccharide, or the like) inducing the NF-κB signal transduction were applied thereto for 12 to 24 hours. A proteolytic inhibitor and a dephosphorylation inhibitor was added to RIPA lysis and extraction buffer (Thermofisher company). Protein was extracted from the RAW cells. The Western blotting process used a method commonly used in the technical field to which the present disclosure belongs, and an antibody specific to phosphorylated p65 employed a product from Cell Signaling Technology company.

[4] = system: mouse model having dermatitis induced by oxazolone (ear); assay: Visual identification of dermatitis inhibition, mice with oxazolone-induced dermatitis in ear; format: in vivo; settings: 20 μl at 500 nM, total 5 times, 30 minutes after oxazolone, FIG. 4
Protocol: Specifically, 150 μl of 3% concentration of oxazolone was applied to an abdominal skin of a 6-week-old mouse to induce an immune response. 20 μl of the same compound diluted to 0.5% concentration was applied to the mouse's ear, total 5 times a day to induce an inflammatory reaction. Thereafter, at 30 minutes after the oxazolone application, 20 μl of each of the acylhydrazone derivative compounds was applied thereto at a concentration of 500 nM and total 5 times.
Moreover, the negative control treated only with ethanol as a solvent and the positive control treated only with oxazolone were reflected in the experiment. The number of mice in each test group was maintained at 10 or more, and the experiment was repeated twice.

[5] = system: IL-4, IL-13 and IL-2 mRNA; assay: qPCR of inflammatory cytokine mRNA in ear skin tissue of dermatitis-induced mice; format: in vivo, mouse; settings: FIG. 6A to 6C
Description: Inflammatory cytokines most associated with the development of dermatitis, such as atopic dermatitis are known as IL-4 and IL-13 which are secreted primarily from Th2 T cells. In order to further identify the anti-inflammatory effect of the acylhydrazone derivative compound in mice with dermatitis induced by oxazolone in Example 4, an ear skin tissue was collected to quantify the mRNA levels of IL-2 secreted from Th2 T cells, along with those of IL-4 and IL-13.
Specifically, ear skin tissues were collected from dermatitis-induced mice prepared in Example 4 and crushed using a tissue disruptor. The crushed tissue powder was dissolved in a solution of Trizol reagent (Sigma company), and RNA was extracted using an RNeasy mini kit (Qiagen company). After reverse transcription of the extracted RNA with a cDNA using ImProm-II™ Reverse Transcription kit (Promega company), a level of cytokines present in a skin tissue was measured using a CFX96 Real-Time PCR Detection System (Bio-Rad company) via a qPCR method.

[6] = system: K14 (Keratin 14), K1 (Keratin 1), FLG (Filaggrin gene) mRNA; assay: qPCR of epidermal hyperplasia markers in back skin tissue of dermatitis-induced mice; format: in vivo, HR-1 (hairless) mouse; settings: FIG. 3B to 3D
Description: When dermatitis is induced, a pathological symptom such as epidermal hyperplasia which thickens the skin is induced.

K14 and K1 mRNA = assay: qPCR of epidermal hyperplasia markers in ear skin tissue of dermatitis-induced mice; format: in vivo, mouse; settings: FIG. 8A and 8B
Description: When dermatitis is induced, pathological symptoms such as epidermal hyperplasia which thickens the skin are induced.

[7] = system: mouse model having dermatitis induced by oxazolone (back skin); assay: Visual identification of dermatitis inhibition, mice with oxazolone-induced dermatitis on back; format: in vivo, HR-1 (hairless) mouse; settings: 150 μl at 500 nM applied 5 times a week, total 19 times, FIG. 1
Protocol: Specifically, 150 μl of 5% oxazolone (4-ethoxymethylene-2-phenyl-2-oxazolin-5-one) was applied to a back skin of a 6-week-old HR-1 (hairless) mouse, and then 150 μl of oxazolone (4-ethoxymethylene-2-phenyl-2-oxazolin-5-one) diluted into 0.1% was applied thereto 3 times a week, 11 times in total. Thus, the back skin inflammatory reaction was induced. Thereafter, 150 μl of the acylhydrazone derivative compound at a concentration of 500 nM was applied thereto 5 times a week, a total of 19 times. […] A negative control treated with only ethanol as a solvent and a positive control treated with only oxazolone were reflected in the test. The number of mice in each test group was maintained at 10 or more, and the experiment was repeated twice.

SMILES | entire thickness of the skin [1] | thickness of the epithelium [1] | inflammatory cytokine expression compared with Cyclosporine A group [2] | expression level of the inflammatory cytokine (IL-4, IL-13, IL-2 mRNA) in skin tissue [2] | phosphorylation of p65 (RelA) [3] | skin condition (visual), skin inflammatory reaction [4] | level of cytokine expression (IL-4, IL-13, IL-2 mRNA) in ear skin tissue [5] | mRNA expression levels of K14, K1 and FLG (epithelial hyperplasia) [6] | expression levels of K14 and K1 (epithelial hyperplasia) (K14 and K1 mRNA) | skin condition (visual), skin inflammatory response [7]
CCOC(=O)Cn1c(C)c(/C=N/NC(=O)c2cc3c(ccc4ccccc43)o2)c2ccccc21 [WCI-1004, ethyl(2-methyl-3(E)-{[(naphtho[2,1-b]furan-2-ylcarbonyl)hydrazono]methyl}-1H-indole-1-yl)acetate] | reduced to a thickness very similar to that of the negative control | reduced to a thickness very similar to that of the negative control | lower levels of inflammatory cytokine expression than that in the skin tissue of the test group treated with Cyclosporine A | significantly reduced | effectively suppressed | a skin condition very similar to that of the negative control | 50 % of the cytokine expression level of the positive control | restored to normal levels | restored to a normal level | skin conditions very similar to those of the negative control
Cc1c(/C=N/NC(=O)c2cc3c(ccc4ccccc43)o2)c2ccccc2n1C [WCI-1015] | reduced to a thickness very similar to that of the negative control | reduced to a thickness very similar to that of the negative control | lower levels of inflammatory cytokine expression than that in the skin tissue of the test group treated with Cyclosporine A | significantly reduced | effectively suppressed | a skin condition very similar to that of the negative control | 50 % of the cytokine expression level of the positive control | restored to normal levels | restored to a normal level | skin conditions very similar to those of the negative control
COC(=O)Cn1c(C)c(/C=N/NC(=O)c2cc3c(ccc4ccccc43)o2)c2ccccc21 [WCI-1031, methyl(E)-2-(2-methyl-3-((2-(naphtho[2,1-b]furan-2-carbonyl)hydrazono)methyl)-1H-indole-1-yl)acetate] | reduced to a thickness very similar to that of the negative control | reduced to a thickness very similar to that of the negative control | lower levels of inflammatory cytokine expression than that in the skin tissue of the test group treated with Cyclosporine A | significantly reduced | effectively suppressed | a skin condition very similar to that of the negative control | 50 % of the cytokine expression level of the positive control | restored to normal levels | restored to a normal level | skin conditions very similar to those of the negative control
